pIC50, pKi: −log10 of the molar value. Each block holds one compound with its values, some of them ahead of it.
Assays:
[1] = molecular target: T1, Steroid 17-alpha-hydroxylase/17,20 lyase (Homo sapiens, UniProt P05093); experiment: Inhibition of human CYP17 C17,20-lyase activity; format: ADME
T1 sequence (P05093 whole entry): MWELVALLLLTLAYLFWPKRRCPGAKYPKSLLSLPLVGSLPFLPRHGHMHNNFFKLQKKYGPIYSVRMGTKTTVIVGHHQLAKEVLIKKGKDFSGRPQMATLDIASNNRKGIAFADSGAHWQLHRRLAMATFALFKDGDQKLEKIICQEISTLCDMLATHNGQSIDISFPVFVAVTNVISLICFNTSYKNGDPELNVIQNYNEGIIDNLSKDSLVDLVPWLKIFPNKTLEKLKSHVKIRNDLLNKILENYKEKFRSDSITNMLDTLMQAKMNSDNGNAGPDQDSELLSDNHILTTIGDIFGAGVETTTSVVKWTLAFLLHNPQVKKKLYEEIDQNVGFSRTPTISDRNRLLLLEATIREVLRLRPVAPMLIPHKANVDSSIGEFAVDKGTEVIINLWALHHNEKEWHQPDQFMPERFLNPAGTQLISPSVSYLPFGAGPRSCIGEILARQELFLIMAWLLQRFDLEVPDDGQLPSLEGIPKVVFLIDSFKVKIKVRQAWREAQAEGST

[2] = molecular target: T1, Steroid 17-alpha-hydroxylase/17,20 lyase; experiment: Inhibition of human testicular microsomal C17, 20 lyase activity using 17alpha-[1,2,6,7-3H] hydroxyprogesterone; format: microsomes, Testis, Microsome
[3] = molecular target: T1, Steroid 17-alpha-hydroxylase/17,20 lyase; experiment: Inhibition of human recombinant CYP17A1 C17,20-lyase activity expressed in Escherichia coli using [1,2-3H]-17alpha-hydroxypregnenolone as substrate incubated for 15 mins; format: ADME
[4] = molecular target: T1, Steroid 17-alpha-hydroxylase/17,20 lyase; experiment: Inhibition of human testicular microsome CYP17; format: ADME, microsomes, Testis
[5] = molecular target: T2, Steroid 17-alpha-hydroxylase/17,20 lyase (Rattus norvegicus, UniProt P11715); experiment: Inhibition of rat CYP17; format: ADME
T2 sequence (P11715 whole entry): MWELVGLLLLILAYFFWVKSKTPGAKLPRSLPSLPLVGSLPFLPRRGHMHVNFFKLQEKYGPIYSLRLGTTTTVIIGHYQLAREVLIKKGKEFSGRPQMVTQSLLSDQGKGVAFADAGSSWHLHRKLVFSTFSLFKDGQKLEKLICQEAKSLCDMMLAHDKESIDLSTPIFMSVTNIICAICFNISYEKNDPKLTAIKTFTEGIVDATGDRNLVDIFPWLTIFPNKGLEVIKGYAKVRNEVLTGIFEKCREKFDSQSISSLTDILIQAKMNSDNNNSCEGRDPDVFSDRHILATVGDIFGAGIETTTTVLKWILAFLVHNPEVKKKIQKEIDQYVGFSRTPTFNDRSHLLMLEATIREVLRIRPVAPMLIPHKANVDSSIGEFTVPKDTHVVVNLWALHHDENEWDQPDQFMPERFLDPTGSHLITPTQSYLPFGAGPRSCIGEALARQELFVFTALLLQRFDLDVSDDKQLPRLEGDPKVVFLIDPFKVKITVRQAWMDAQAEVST

Serum = experiment: In vivo inhibition of testosterone in Sprague-Dawley rat assessed as serum testosterone level at 25 mg/kg, po measured after 5 hrs by radioimmuno assay relative to control; format: functional
[6] = molecular target: T1, Steroid 17-alpha-hydroxylase/17,20 lyase; experiment: Inhibiton of human CYP17A1 C17, 20 lyase activity expressed in Escherichia coli using [1,2-3H]-17alpha-hydroxyprogesterone as substrate incubated for 15 mins in presence of NADPH generating system; format: ADME
[7] = molecular target: T1, Steroid 17-alpha-hydroxylase/17,20 lyase; experiment: Inhibition of human testicular CYP17; format: ADME, tissue-based, Testis
[8] = molecular target: T2, Steroid 17-alpha-hydroxylase/17,20 lyase; experiment: Inhibition of rat testicular CYP17; format: ADME, tissue-based, Testis
[9] = molecular target: T2, Steroid 17-alpha-hydroxylase/17,20 lyase; experiment: Inhibiton of Sprague-Dawley rat testicular microsomal suspension CYP17A1 17-alpha hydroxylase activity using radiolabelled progesterone as substrate preincubated for 5 mins followed by enzyme addition incubated for 15 mins in presence of NADPH generating system; format: ADME, microsomes, Testis, Microsome
[10] = molecular target: T2, Steroid 17-alpha-hydroxylase/17,20 lyase; experiment: Inhibiton of Sprague-Dawley rat testicular microsomal suspension CYP17A1 C17, 20 lyase activity using radiolabelled 17alpha-hydroxyprogesterone as substrate preincubated for 5 mins followed by enzyme addition incubated for 30 mins in presence of NADPH generating system; format: ADME, microsomes, Testis, Microsome
[11] = molecular target: T2, Steroid 17-alpha-hydroxylase/17,20 lyase; experiment: Inhibiton of Sprague-Dawley rat testicular microsomal suspension CYP17A1 C17, 20 lyase activity using [1,2-3H]-17alpha-hydroxyprogesterone as substrate incubated for 15 mins in presence of NADPH generating system; format: ADME, microsomes, Testis, Microsome
Cytochrome P450 3A4 = Cytochrome P450 3A4 (Homo sapiens, UniProt P08684); experiment: Inhibition of human recombinant CYP3A4; format: ADME
Sequence of Cytochrome P450 3A4 (P08684 whole entry): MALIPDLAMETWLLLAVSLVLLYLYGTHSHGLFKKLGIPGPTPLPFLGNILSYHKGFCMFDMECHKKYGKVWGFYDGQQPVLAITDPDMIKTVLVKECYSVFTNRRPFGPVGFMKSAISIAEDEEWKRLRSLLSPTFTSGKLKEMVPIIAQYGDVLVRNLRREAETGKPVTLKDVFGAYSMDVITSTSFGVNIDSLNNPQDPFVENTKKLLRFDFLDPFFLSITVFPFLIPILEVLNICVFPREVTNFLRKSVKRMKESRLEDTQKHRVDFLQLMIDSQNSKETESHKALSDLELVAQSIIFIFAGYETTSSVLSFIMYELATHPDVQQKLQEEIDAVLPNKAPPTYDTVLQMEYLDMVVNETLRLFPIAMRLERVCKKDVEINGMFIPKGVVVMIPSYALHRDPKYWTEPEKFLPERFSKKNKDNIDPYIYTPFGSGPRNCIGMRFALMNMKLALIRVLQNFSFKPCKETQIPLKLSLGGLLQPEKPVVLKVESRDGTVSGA

Cytochrome P450 2D6 = Cytochrome P450 2D6 (Homo sapiens, UniProt P10635); experiment: Inhibition of human recombinant CYP2D6; format: ADME
Sequence of Cytochrome P450 2D6 (P10635 whole entry): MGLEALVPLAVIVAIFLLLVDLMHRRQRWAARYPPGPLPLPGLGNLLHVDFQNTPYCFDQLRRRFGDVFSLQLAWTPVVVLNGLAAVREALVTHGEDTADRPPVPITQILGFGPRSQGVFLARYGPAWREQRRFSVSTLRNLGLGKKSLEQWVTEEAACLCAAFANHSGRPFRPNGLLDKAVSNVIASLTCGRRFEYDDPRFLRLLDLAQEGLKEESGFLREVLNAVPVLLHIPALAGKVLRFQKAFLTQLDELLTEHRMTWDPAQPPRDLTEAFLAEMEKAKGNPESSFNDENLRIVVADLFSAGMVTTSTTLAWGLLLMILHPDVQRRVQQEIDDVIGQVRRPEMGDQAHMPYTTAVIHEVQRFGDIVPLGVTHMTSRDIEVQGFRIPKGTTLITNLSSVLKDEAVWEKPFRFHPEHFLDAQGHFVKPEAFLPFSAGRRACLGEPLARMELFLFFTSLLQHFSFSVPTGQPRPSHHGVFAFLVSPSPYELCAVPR

[12] = molecular target: T2, Steroid 17-alpha-hydroxylase/17,20 lyase; experiment: Inhibition of Spague-Dawley rat testicular microsome CYP17 using progesterone as substrate preincubated for 5 mins followed by enzyme addition measured after 20 mins in presence of NADPH; format: ADME, microsomes, Testis
[13] = molecular target: T2, Steroid 17-alpha-hydroxylase/17,20 lyase; experiment: Binding affinity to Sprague-Dawley rat testicular microsome CYP17A1 assessed as inhibition constant; format: ADME, microsomes, Testis
[14] = molecular target: T1, Steroid 17-alpha-hydroxylase/17,20 lyase; experiment: Inhibition of human testis C17, 20 lyase activity using 17alpha-[1,2-3H] hydroxyprogesterone incubated for 30 mins in presence of NADPH generating system; format: tissue-based

SMILES: O=c1c(O)cc([C@H]2Oc3cc(O)cc(O)c3C[C@H]2O)cc2c([C@H]3Oc4cc(O)cc(O)c4C[C@H]3O)cc(O)c(O)c12 [THEAFLAVIN]
pIC50 [1]: 4.60

SMILES: COc1ccc(-c2ccc([C@](O)(c3c[nH]cn3)C(C)C)cc2)cc1OC
pIC50 [3]: 7.96

SMILES: c1ccc(-c2ccc(Cn3ccnc3)cc2)cc1
pIC50 [4]: 6.00

SMILES: COc1ccc2c(c1)CCC(Cc1c[nH]cn1)C2 (stereo not given)
pIC50 [5]: 6.00

SMILES: CC(c1ccc(-c2ccc(F)cc2)cc1)n1ccnc1 (stereo not given)
pIC50 [7]: 6.62
pIC50 [8]: 6.27

SMILES: COc1cccc2c1CCC(c1ccncc1)C2=O (stereo not given)
pIC50 [12]: 4.89

SMILES: O=C1c2cc(Cl)ccc2CCC1c1cccnc1 (stereo not given)
pKi [13]: 6.52

SMILES: CC1=C(c2cccnc2)Cc2cc(Cl)ccc21
pKi [13]: 7.40

SMILES: Clc1ccccc1C(c1cc2cc(Br)ccc2o1)n1ccnc1 (stereo not given)
pIC50 [14]: 8.40

Second part, led by results:

pIC50 [2]: 6.73
SMILES: Brc1cc(Br)c2oc(Cn3ccnc3)cc2c1

pIC50 [6]: 7.68
SMILES: Cc1c(/C=C/[C@H](C)c2c[nH]cn2)sc2ccc(F)cc12
Ct (Serum): 2%

pIC50 [9]: 6.30
pIC50 [10]: 7.24
SMILES: Brc1ccc(CCCCCn2ccnc2)cc1

pIC50 [11]: 6.64
SMILES: C(=C\c1cccc(-n2ccnc2)c1)/c1ccccc1

pIC50 (Cytochrome P450 3A4): < 5.00
pIC50 (Cytochrome P450 2D6): < 5.00
SMILES: c1cncc(Nc2ccc(-n3cnc4ccccc43)cc2)c1

pIC50 [11]: 7.62
SMILES: C(=C/c1cccc(Cn2ccnc2)c1)/c1ccccc1
Ct (Serum): 135%
